Experimental data as given in patent US20080008773A1, “Food beverage or feed for the promotion of osteogenesis comprising umbelliferae, liliaceae or compositae plant species” (priority 2002, published 2008).

Assays:
ST-2 cells = assay: Induction of differentiation of ST-2 cells into osteoblasts (alkaline phosphatase as index); assay type: cell-based, Mouse
Experimental: (§1) (1) Mouse interstitial cell strain ST-2 was suspended in DMEM medium (manufactured by Bio Whittaker) containing 10% fetal bovine serum (manufactured by Bio Whittaker) so as to have a concentration of 3×10^4 cells/ml. The suspension was put to a 96-well plate in an amount of 0.1 ml per well, and the cells were cultured sterilely. After the cells were cultured for 2 days, the medium was exchanged with a fresh medium. The compound a derived from root portions of Angelica keiskei koidz. obtained in Example 1 was added thereto as a sample, and the cells were cultured for 3 days. Subsequently, differentiation of ST-2 cells into osteoblasts was measured using alkaline phosphatase as an index. The cells were washed once with PBS, 100 μl of a reaction substrate solution (100 mM diethanolamine buffer, pH 10.0, 2 mM magnesium chloride, 1 mM p-nitrophenyl phosphate) was added thereto, and the reaction was carried out at 37° C. for 30 minutes. Next, the reaction was terminated with adding 100 μl of 0.2 N sodium hydroxide, and the amount of p-nitrophenol which was released was determined by determining absorbance at 405 nm. The activity for induction of differentiation into osteoblasts was shown by setting a group without addition of the sample as a control, and defining alkaline phosphatase activity of the control as 100%. The experiments were carried out twice, and the average was taken.

MC3T3-E1 cells = assay: Induction of differentiation of MC3T3-E1 cells into osteoblasts (alkaline phosphatase as index); assay type: cell-based, Mouse
Experimental: as §1
Mouse pre-osteoblast strain MC3T3-E1 was suspended in DMEM medium containing 10% fetal bovine serum so as to have a concentration of 3×10^4 cells/ml. The suspension was put to a 96-well plate in an amount of 0.1 ml per well, and the cells were cultured sterilely. After the cells were cultured for 2 days, the medium was exchanged with a fresh medium. The compound a derived from root portions of Angelica keiskei koidz. obtained in Example 1 was added thereto as a sample, and the cells were cultured for 5 days. Subsequently, the differentiation into osteoblasts was determined using alkaline phosphatase as an index in the same manner as in Example 2.

CC12CCC(O)C(C)(C)C1Cc1c(O)ccc(C(=O)/C=C/c3ccc(O)cc3)c1O2 (single isomer, unassigned) [Compound a, (E)-1-(5,6,7,8,8a,10a-hexahydro-1,7-dihydroxy-8,8,10a-trimethyl-9H-xanthen-4-yl)-3-(4-hydroxyphenyl)-2-propen-1-one]
Induction of differentiation into osteoblasts (in words) (ST-2 cells): induces differentiation into osteoblasts in a concentration-dependent manner | activity at 0.313 µM (ST-2 cells; Mus musculus, 72 h, 0.313 μM, cultured 3 days, control without sample = 100%): 219% | activity at 0.625 µM (ST-2 cells; Mus musculus, 72 h, 0.625 μM, cultured 3 days, control without sample = 100%): 260% | activity at 1.25 µM (ST-2 cells; Mus musculus, 72 h, 1.25 μM, cultured 3 days, control without sample = 100%): 358% | Induction of differentiation into osteoblasts (in words) (MC3T3-E1 cells): induces the differentiation into osteoblasts in a concentration-dependent manner | activity at 1.25 µM (MC3T3-E1 cells; Mus musculus, 120 h, 1.25 μM, cultured 5 days, control = 100%): 171% | activity at 2.5 µM (MC3T3-E1 cells; Mus musculus, 120 h, 2.5 μM, cultured 5 days, control = 100%): 292%
